In ChEMBL document CHEMBL6127129 (J Nat Prod, 2024):

Target: Estrogen receptor beta (Homo sapiens, UniProt Q92731)
Sequence (Q92731 whole entry): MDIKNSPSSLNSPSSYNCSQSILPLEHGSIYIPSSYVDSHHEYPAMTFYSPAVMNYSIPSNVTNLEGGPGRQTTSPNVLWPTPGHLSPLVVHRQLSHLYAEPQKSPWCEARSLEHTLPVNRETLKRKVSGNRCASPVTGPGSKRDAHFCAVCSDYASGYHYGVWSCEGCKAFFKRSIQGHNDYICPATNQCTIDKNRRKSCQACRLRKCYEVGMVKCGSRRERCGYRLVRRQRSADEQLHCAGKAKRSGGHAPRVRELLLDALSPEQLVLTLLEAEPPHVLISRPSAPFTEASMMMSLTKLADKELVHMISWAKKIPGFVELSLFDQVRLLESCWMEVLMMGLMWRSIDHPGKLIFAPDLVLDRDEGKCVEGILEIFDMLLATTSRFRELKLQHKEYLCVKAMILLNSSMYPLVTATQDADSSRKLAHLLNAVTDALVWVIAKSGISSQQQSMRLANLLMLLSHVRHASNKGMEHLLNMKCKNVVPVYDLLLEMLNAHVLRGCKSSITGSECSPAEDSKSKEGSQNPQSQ
Description: Antagonist activity at human ER-beta transfected in human HepG2 cells incubated for 24 hrs by 3xERE-driven luciferase reporter assay

IC50: 1320 µM
SMILES: C=CCc1ccc(OC(=O)CCC)c(-c2ccc(O)c(CC=C)c2)c1
